This is an account of results in ChEMBL document CHEMBL1138996, “Biological evaluation of isothiazoloquinolones containing aromatic heterocycles at the 7-position: In vitro activity of a series of potent antibacterial agents that are effective against methicillin-resistant Staphylococcus aureus” (Bioorg Med Chem Lett, 2006).

For assay [1], the system named is Staphylococcus aureus. Nature of the assay: Antibacterial activity against Staphylococcus aureus ATCC 29213. It counts as functional.
Assay [2] relates to Staphylococcus aureus. Nature of the assay: Antibacterial activity against methicillin-resistant Staphylococcus aureus ATCC 700699. It counts as functional.
Another assay relates to HEp-2. Nature of the assay: Cytotoxicity against Hep2 cell line. Type of assay: functional. To be noted: Homo sapiens.
Assay [3] has as its target DNA topoisomerase 4 subunit A (Staphylococcus aureus, UniProt P0C1U9). Nature of the assay: Inhibitory activity against Staphylococcus aureus ATCC 29213 wild type Topo 4.
For a further assay, the system named is Escherichia coli. Nature of the assay: Antibacterial activity against Escherichia coli ATCC 25922. It counts as functional.
The next assay concerns Klebsiella pneumoniae. Nature of the assay: Antibacterial activity against Klebsiella pneumoniae ATCC 13883. Type of assay: functional.
The test system of the next assay is Enterococcus faecium. Nature of the assay: Antibacterial activity against Enterococcus faecium ATCC 49032. Type of assay: functional.
A further assay relates to Streptococcus pneumoniae. Nature of the assay: Antibacterial activity against Streptococcus pneumoniae ATCC 49619. It counts as functional.
The subject of another assay is Moraxella catarrhalis. Nature of the assay: Antibacterial activity against Moraxella catarrhalis ATCC 8176. It counts as functional.
In another assay the test system is Enterococcus faecalis. Nature of the assay: Antibacterial activity against Enterococcus faecalis ATCC 29212. Type of assay: functional.
Assay [4] has as its system Stenotrophomonas maltophilia. Nature of the assay: Antibacterial activity against Stenotrophomonas maltophilia ATCC 13637. Type of assay: functional.
The next assay has as its system Salmonella typhimurium. Nature of the assay: Antibacterial activity against Salmonella Typhimurium ATCC 14028. To be noted: Salmonella enterica. It counts as functional, Salmonella enterica subsp. enterica serovar Typhimurium.
The next assay concerns Streptococcus pyogenes. Nature of the assay: Antibacterial activity against Streptococcus pyogenes ATCC 19615. It counts as functional.
Another assay deals with Haemophilus influenzae. Nature of the assay: Antibacterial activity against Haemophilus influenzae type b ACH-0056. It counts as functional.

The structures appear in SMILES notation. ≈ marks a conversion by molar mass, not a printed value. A value given as a limit tells only on which side of the number the result lay.

DNA topoisomerase 4 subunit A, sequence (P0C1U9 whole entry): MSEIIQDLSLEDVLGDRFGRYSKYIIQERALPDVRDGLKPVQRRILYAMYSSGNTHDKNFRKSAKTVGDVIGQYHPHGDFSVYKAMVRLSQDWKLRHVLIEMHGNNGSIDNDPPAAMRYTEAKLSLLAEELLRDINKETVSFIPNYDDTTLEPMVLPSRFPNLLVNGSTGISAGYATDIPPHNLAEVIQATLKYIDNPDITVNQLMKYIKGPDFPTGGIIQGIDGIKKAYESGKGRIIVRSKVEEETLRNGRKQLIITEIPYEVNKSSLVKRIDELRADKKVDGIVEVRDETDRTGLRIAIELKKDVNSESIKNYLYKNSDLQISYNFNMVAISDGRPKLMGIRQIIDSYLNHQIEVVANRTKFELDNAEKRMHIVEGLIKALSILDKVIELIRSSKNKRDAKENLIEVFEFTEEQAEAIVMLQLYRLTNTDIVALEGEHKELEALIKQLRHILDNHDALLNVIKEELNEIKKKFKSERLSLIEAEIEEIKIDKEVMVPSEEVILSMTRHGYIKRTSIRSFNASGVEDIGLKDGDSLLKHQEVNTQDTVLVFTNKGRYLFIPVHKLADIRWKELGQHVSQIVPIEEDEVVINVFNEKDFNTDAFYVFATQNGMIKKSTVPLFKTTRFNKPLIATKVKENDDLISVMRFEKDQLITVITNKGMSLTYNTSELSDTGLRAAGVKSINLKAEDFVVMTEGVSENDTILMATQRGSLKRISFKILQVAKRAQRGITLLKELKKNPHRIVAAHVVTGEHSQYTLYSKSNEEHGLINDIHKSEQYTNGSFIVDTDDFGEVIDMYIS

In the case of `O=c1[nH]sc2c1c(=O)c1cc(F)c(-c3cc4ccccc4[nH]3)cc1n2C1CC1`, the values for the MIC in the assay on Staphylococcus aureus [1], against Staphylococcus aureus [2] and with Escherichia coli were 0.06 µg/mL (≈ 0.153 µM), 4 µg/mL (≈ 10.2 µM) and 1 µg/mL (≈ 2.55 µM), respectively. Besides, the CC50 (commonly the concentration giving 50% cytotoxicity) with HEp-2 came to 9 µM. Half-maximal inhibition in assay [3] (IC50) was put at 3.3 µM.

As to `O=c1[nH]sc2c1c(=O)c1cc(F)c(-c3ccc4[nH]ccc4c3)cc1n2C1CC1`, the results for the MIC with Staphylococcus aureus [1], against Staphylococcus aureus [2] and against Escherichia coli were 0.004 µg/mL (≈ 0.0102 µM), 2 µg/mL (≈ 5.11 µM) and 0.059 µg/mL (≈ 0.151 µM), respectively. Moreover, the CC50 in the assay with HEp-2 is greater than 82 µM. Further, in [3], the IC50 (in general, the point on the concentration scale where inhibition reaches its midpoint) was greater than 40 µM.

Take `O=c1[nH]sc2c1c(=O)c1cc(F)c(-c3cncc(C4CCCCN4)c3)cc1n2C1CC1` (stereo unspecified): the MIC stood at 0.12 µg/mL (≈ 0.275 µM) in the assay on Staphylococcus aureus [1], 8 µg/mL (≈ 18.3 µM) in the assay with Staphylococcus aureus [2] and 0.46 µg/mL (≈ 1.05 µM) against Escherichia coli. The same compound yielded a CC50 in the assay with HEp-2 of 6 µM. In addition, the IC50 in assay [3] was 5 µM.

`O=c1[nH]sc2c1c(=O)c1cc(F)c(-c3ccccc3)cc1n2C1CC1`: the MIC against Staphylococcus aureus [1] was found to be 0.0035 µg/mL (≈ 0.00993 µM); with Staphylococcus aureus [2], 16 µg/mL (≈ 45.4 µM); with Escherichia coli, 0.06 µg/mL (≈ 0.17 µM). Moreover, the CC50 in the assay with HEp-2 is greater than 100 µM. Moreover, half-maximal inhibition in [3] (IC50) required 6.3 µM.

With `O=c1[nH]sc2c1c(=O)c1cc(F)c(-c3cnccn3)cc1n2C1CC1`, the MIC in the assay on Staphylococcus aureus [1] was 0.12 µg/mL (≈ 0.339 µM); in the assay on Staphylococcus aureus [2] it was greater than 64 µg/mL; with Escherichia coli, 1 µg/mL (≈ 2.82 µM). Besides, the CC50 in the assay on HEp-2 was greater than 91 µM. In addition, the IC50 in assay [3] amounted to 64 µM.

Turning to `O=c1[nH]sc2c1c(=O)c1cc(F)c(-c3ccc4cnccc4c3)cc1n2C1CC1`, the MIC in the assay on Staphylococcus aureus [1] is 0.002 µg/mL (≈ 0.00496 µM); in the assay with Staphylococcus aureus [2], 0.5 µg/mL (≈ 1.24 µM); in the assay with Escherichia coli, 0.13 µg/mL (≈ 0.322 µM). Further, in the assay with HEp-2, the cytotoxic concentration (CC50) was 22 µM. For the same compound, in assay [3], half-maximal inhibition (IC50) was put at 3.6 µM.

For `Cc1ccc(-c2cc3c(cc2F)c(=O)c2c(=O)[nH]sc2n3C2CC2)cn1`, the MIC is 0.0037 µg/mL (≈ 0.0101 µM) against Staphylococcus aureus [1], 1 µg/mL (≈ 2.72 µM) against Staphylococcus aureus [2] and 0.037 µg/mL (≈ 0.101 µM) with Escherichia coli. Besides, the CC50 in the assay on HEp-2 was found to be 31 µM. The compound also showed an IC50 in assay [3] of 8.5 µM.

For `O=c1[nH]sc2c1c(=O)c1cc(F)c(-c3ccc[nH]3)cc1n2C1CC1`, the figures for the MIC in the assay on Staphylococcus aureus [1], against Staphylococcus aureus [2] and in the assay on Escherichia coli were 0.06 µg/mL (≈ 0.176 µM), 16 µg/mL (≈ 46.9 µM) and 1 µg/mL (≈ 2.93 µM), respectively. Besides, in the assay with HEp-2, the CC50 is 23 µM. Also, the IC50 in assay [3] stood at 9.9 µM.

Turning to `O=c1[nH]sc2c1c(=O)c1cc(F)c(-c3cccnc3)cc1n2C1CC1`, the values for the MIC with Staphylococcus aureus [1], against Staphylococcus aureus [2] and against Escherichia coli were 0.0071 µg/mL (≈ 0.0201 µM), 2 µg/mL (≈ 5.66 µM) and 0.0035 µg/mL (≈ 0.0099 µM), respectively. Besides, in the assay with HEp-2, the CC50 is greater than 100 µM. The same compound yielded a half-maximal inhibitory concentration (IC50) in [3] of 0.5 µM.

As for `O=c1[nH]sc2c1c(=O)c1cc(F)c(-c3ccc4cncnc4c3)cc1n2C1CC1`, the figures for the MIC in the assay with Staphylococcus aureus [1], in the assay with Staphylococcus aureus [2] and with Escherichia coli were 0.06 µg/mL (≈ 0.148 µM), greater than 64 µg/mL and 4 µg/mL (≈ 9.89 µM), respectively. For the same compound, the CC50 in the assay with HEp-2 is greater than 100 µM. For the same compound, the IC50 in assay [3] is 29 µM.

`Cc1ncccc1-c1cc2c(cc1F)c(=O)c1c(=O)[nH]sc1n2C1CC1`: the figures for the MIC against Staphylococcus aureus [1], with Staphylococcus aureus [2] and against Escherichia coli were 0.13 µg/mL (≈ 0.354 µM), 1 µg/mL (≈ 2.72 µM) and 0.51 µg/mL (≈ 1.39 µM), respectively. The compound also returned a CC50 in the assay with HEp-2 of 12 µM. The IC50 in assay [3] amounted to 3.5 µM.

With `Cc1ccnc(-c2cc3c(cc2F)c(=O)c2c(=O)[nH]sc2n3C2CC2)c1`, the results for the MIC in the assay on Staphylococcus aureus [1], in the assay on Staphylococcus aureus [2] and against Escherichia coli were 0.06 µg/mL (≈ 0.163 µM), 32 µg/mL (≈ 87.1 µM) and 0.25 µg/mL (≈ 0.68 µM), respectively. Further, the CC50 with HEp-2 is greater than 100 µM. In assay [3], this compound showed an IC50 of 16 µM.

Take `O=c1[nH]sc2c1c(=O)c1cc(F)c(-c3cncc4ccccc34)cc1n2C1CC1`: the MIC was determined as 0.028 µg/mL (≈ 0.0694 µM) against Staphylococcus aureus [1], 8 µg/mL (≈ 19.8 µM) in the assay on Staphylococcus aureus [2] and 0.48 µg/mL (≈ 1.19 µM) against Escherichia coli. This compound returned a CC50 in the assay with HEp-2 of 51 µM. Besides, the IC50 in [3] was greater than 38 µM.

For `O=c1[nH]sc2c1c(=O)c1cc(F)c(-c3ccnc(CO)c3)cc1n2C1CC1`, the MIC turned out to be 0.034 µg/mL (≈ 0.0887 µM) in the assay with Staphylococcus aureus [1], 32 µg/mL (≈ 83.5 µM) against Staphylococcus aureus [2] and 0.14 µg/mL (≈ 0.365 µM) in the assay with Escherichia coli. The same compound gave a CC50 in the assay with HEp-2 greater than 100 µM. The same compound gave an IC50 in [3] of 4.8 µM.

Turning to `O=c1[nH]sc2c1c(=O)c1cc(F)c(-c3ccncc3)cc1n2C1CC1`, the MIC in the assay with Staphylococcus aureus [1] came out at 0.0035 µg/mL (≈ 0.0099 µM); in the assay with Staphylococcus aureus [2], 1 µg/mL (≈ 2.83 µM); against Escherichia coli it was 0.028 µg/mL (≈ 0.0792 µM). This compound also returned an IC50 in assay [3] of 2.2 µM.

With `O=C(O)c1cn(C2CC2)c2cc(N3CCNCC3)c(F)cc2c1=O` [CIPROFLOXACIN], the MIC was determined as 0.22 µg/mL (≈ 0.664 µM) against Staphylococcus aureus [1]; 0.033 µg/mL (≈ 0.0996 µM) with Klebsiella pneumoniae; 2 µg/mL (≈ 6.04 µM) against Enterococcus faecium; 32 µg/mL (≈ 96.6 µM) against Staphylococcus aureus [2]; 0.56 µg/mL (≈ 1.69 µM) against Streptococcus pneumoniae; 0.033 µg/mL (≈ 0.0996 µM) in the assay with Moraxella catarrhalis. In addition, the MIC in the assay on Enterococcus faecalis was 0.56 µg/mL (≈ 1.69 µM); in assay [4], 0.28 µg/mL (≈ 0.845 µM); in the assay with Salmonella typhimurium, 0.018 µg/mL (≈ 0.0543 µM); in the assay with Streptococcus pyogenes, 0.28 µg/mL (≈ 0.845 µM); against Haemophilus influenzae, 0.018 µg/mL (≈ 0.0543 µM). This compound also gave a CC50 in the assay with HEp-2 greater than 100 µM.

With `COc1ccc(-c2cc3c(cc2F)c(=O)c2c(=O)[nH]sc2n3C2CC2)c(OC)n1`, the values for the MIC with Staphylococcus aureus [1], in the assay on Staphylococcus aureus [2] and in the assay on Escherichia coli were 0.046 µg/mL (≈ 0.111 µM), 8 µg/mL (≈ 19.4 µM) and 2 µg/mL (≈ 4.84 µM), respectively. The CC50 in the assay on HEp-2 turned out to be 98 µM. The same compound showed an IC50 in [3] of 16 µM.
